Measured values: the supplement of paper PMC10307832

Assays:
Assay in all cases: relative viability (nuclei count vs DMSO), 5 days (fraction); higher = more cells survive
Cediranib + AZD7762 = compound: COc1cc2c(Oc3ccc4[nH]c(C)cc4c3F)ncnc2cc1OCCCN1CCCC1 [Cediranib] + NC(=O)Nc1cc(-c2cccc(F)c2)sc1C(=O)N[C@H]1CCCNC1 [AZD7762] (partner 0.2 µM)
Outline: (§1)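 Medians of duplicate plates are given as relative viability. That measure is the nuclei count in treated wells divided by the count in vehicle wells. Counts were taken on 4× images of lung cancer cell lines in 1536-well plates, 5 days after pin-tool dosing the day after seeding with one drug alone or a fixed anchor-drug dose plus five library-drug doses (not always all listed) in √10 steps.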

Decitabine + Linsitinib = compound: Nc1ncn([C@H]2C[C@H](O)[C@@H](CO)O2)c(=O)n1 [Decitabine] + C[C@]1(O)C[C@@H](c2nc(-c3ccc4ccc(-c5ccccc5)nc4c3)c3c(N)nccn32)C1 [Linsitinib] (partner 1 µM)
Outline: as §1

Decitabine + AZD7762 = compound: Nc1ncn([C@H]2C[C@H](O)[C@@H](CO)O2)c(=O)n1 [Decitabine] + NC(=O)Nc1cc(-c2cccc(F)c2)sc1C(=O)N[C@H]1CCCNC1 [AZD7762] (partner 0.2 µM)
Outline: as §1

Halofuginone + Dasatinib = compound: O=C(C[C@H]1NCCC[C@@H]1O)Cn1cnc2cc(Br)c(Cl)cc2c1=O (racemic) [Halofuginone] + Cc1nc(Nc2ncc(C(=O)Nc3c(C)cccc3Cl)s2)cc(N2CCN(CCO)CC2)n1 [Dasatinib] (partner 0.075 µM)
Outline: as §1

Row | Cell Line | relative viability (Cediranib + AZD7762; first compound 0.04 µM) | relative viability (Cediranib + AZD7762; first compound 0.1265 µM) | relative viability (Cediranib + AZD7762; first compound 0.4 µM) | relative viability (Cediranib + AZD7762; first compound 1.265 µM) | relative viability (Cediranib + AZD7762; first compound 4 µM) | relative viability (Decitabine + Linsitinib; first compound 0.04 µM) | relative viability (Decitabine + Linsitinib; first compound 0.1265 µM) | relative viability (Decitabine + Linsitinib; first compound 0.4 µM) | relative viability (Decitabine + Linsitinib; first compound 1.265 µM) | relative viability (Decitabine + Linsitinib; first compound 4 µM) | relative viability (Decitabine + AZD7762; first compound 0.04 µM) | relative viability (Decitabine + AZD7762; first compound 0.1265 µM) | relative viability (Decitabine + AZD7762; first compound 0.4 µM) | relative viability (Decitabine + AZD7762; first compound 1.265 µM) | relative viability (Decitabine + AZD7762; first compound 4 µM) | relative viability (Halofuginone + Dasatinib; first compound 0.001 µM) | relative viability (Halofuginone + Dasatinib; first compound 0.003162 µM) | relative viability (Halofuginone + Dasatinib; first compound 0.01 µM) | relative viability (Halofuginone + Dasatinib; first compound 0.03162 µM) | relative viability (Halofuginone + Dasatinib; first compound 0.1 µM)
1 | NCI-H1437 | 1.12 | 1.1 | 1.15 | 1.07 | 0.998 | 0.894 | 0.771 | 0.385 | 0.259 | 0.233 | 1.1 | 0.962 | 0.758 | 0.61 | 0.391 | 0.377 | 0.445 | 0.431 | 0.364 | 0.285
2 | NCI-H1651 | 0.437 | 0.527 | 0.471 | 0.314 | 0.524 | 0.865 | 0.888 | 0.888 | 0.839 | 0.733 | 0.43 | 0.446 | 0.336 | 0.341 | 0.355 | 0.526 | 0.494 | 0.377 | 0.258 | 0.162
3 | NCI-H1666 | 0.868 | 0.757 | 0.907 | 0.767 | 0.894 | 0.816 | 0.706 | 0.672 | 0.629 | 0.689 | 0.826 | 0.872 | 0.696 | 0.787 | 0.763 | 0.812 | 0.802 | 0.753 | 0.766 | 0.664
4 | NCI-H1734 | 0.679 | 0.952 | 0.446 | 0.42 | 0.629 | 0.739 | 0.691 | 0.698 | 0.459 | 0.348 | 0.417 | 0.51 | 0.501 | 0.209 | 0.209 | 0.52 | 0.558 | 0.436 | 0.449 | 0.293
5 | NCI-H1755 | 0.423 | 0.617 | 0.375 | 0.43 | 0.425 | 0.936 | 0.948 | 0.915 | 0.688 | 0.429 | 0.634 | 0.463 | 0.56 | 0.467 | 0.419 | 0.514 | 0.435 | 0.465 | 0.422 | 0.291
6 | NCI-H1792 |  | 0.922 | 0.554 | 0.658 | 0.838 | 0.643 | 0.568 | 0.531 | 0.378 | 0.333 | 0.616 | 0.731 | 0.478 | 0.242 | 0.19 | 0.973 | 0.791 | 0.844 | 0.76 | 0.607
7 | NCI-H1793 | 0.521 | 0.492 | 0.418 | 0.329 | 0.394 | 0.848 | 0.947 | 0.854 | 0.5 | 0.434 | 0.37 | 0.591 | 0.258 | 0.154 | 0.169 | 0.374 | 0.37 | 0.418 | 0.468 | 0.296
